# Source: PMC7587356, “High-Throughput Screening for Inhibitors of the SARS-CoV-2 Protease Using a FRET-Biosensor” (Molecules, 2020)
# Counter-ions that a name gives are not always drawn. Like-named read-outs stand apart in the source and are kept apart here.
# Biological target: SARS-CoV-2 3CLpro (Severe acute respiratory syndrome coronavirus 2, UniProt P0DTD1)
# Experiment: biochemical
# Format: biochemical
# Design: Replicate_1 / Replicate_2 / mean / mean (LOPAC_screen_w_protease): unit not given here
# Conditions: for inhibition at 5 µM: 4 h
# [1] = LOPAC1280 primary screen with protease, 5 µM compound, replicate 1, read-out: Replicate_1 (LOPAC_screen_w_protease)
# [2] = LOPAC1280 primary screen with protease, 5 µM compound, replicate 2, read-out: Replicate_2 (LOPAC_screen_w_protease)
# [3] = LOPAC1280 primary screen with protease, 5 µM compound, mean of two replicates
# [4] = sheet LOPAC_screen_w_protease, LOPAC1280 primary screen with protease, 5 µM compound, mean of the two replicates, read-out: mean
# [5] = sheet LOPAC_screen_w_protease, LOPAC1280 primary screen with protease, 5 µM compound, replicate 1, read-out: Replicate_1
# [6] = sheet LOPAC_screen_w_protease, LOPAC1280 primary screen with protease, 5 µM compound, replicate 2, read-out: Replicate_2
smiles,measurement,setting,value
Nc1nc2ccc(OC(F)(F)F)cc2s1 [Riluzole],inhibition at 5 µM,[1],2.44%
same,inhibition at 5 µM,[2],0.68%
same,mean (LOPAC_screen_w_protease),[3],1.558
Cc1ncc(CNC(=O)N(CCCl)N=O)c(N)n1 [Nimustine hydrochloride],inhibition at 5 µM,"sheet LOPAC_screen_w_protease, primary screen of LOPAC1280 at 5 µM with protease, mean of the two replicates, read-out: mean",3.43%
same,inhibition at 5 µM,"sheet LOPAC_screen_w_protease, primary screen of LOPAC1280 at 5 µM with protease, replicate 1, read-out: Replicate_1",3.89%
same,inhibition at 5 µM,"sheet LOPAC_screen_w_protease, primary screen of LOPAC1280 at 5 µM with protease, replicate 2, read-out: Replicate_2",2.97%
CC(COc1ccccc1)N(CCCl)Cc1ccccc1 (stereo not drawn) [Phenoxybenzamine hydrochloride],inhibition at 5 µM,[4],4.33%
same,inhibition at 5 µM,[5],4.24%
same,inhibition at 5 µM,[6],4.41%
CN1CCN(C2=Nc3cc(Cl)ccc3Nc3ccccc32)CC1 [Clozapine],inhibition at 5 µM,"sheet LOPAC_screen_w_protease, primary screen with protease, mean of two replicates, read-out: mean",2.28%
same,inhibition at 5 µM,"sheet LOPAC_screen_w_protease, primary screen with protease, replicate 1, read-out: Replicate_1",2.27%
same,inhibition at 5 µM,"sheet LOPAC_screen_w_protease, primary screen with protease, replicate 2, read-out: Replicate_2",2.3%
COCCOC(=O)C1=C(C)NC(C)=C(C(=O)OC(C)C)C1c1cccc([N+](=O)[O-])c1 (stereo not drawn) [Nimodipine],inhibition at 5 µM,[4],4.81%
same,inhibition at 5 µM,[5],3.58%
same,inhibition at 5 µM,[6],6.04%
CC(=O)[C@H]1CC[C@H]2[C@@H]3CC[C@H]4C[C@H](O)CC[C@]4(C)[C@H]3CC[C@]12C [5alpha-Pregnan-3alpha-ol-20-one],mean,"sheet LOPAC_screen_w_protease, LOPAC1280 primary screen at 5 µM, with protease, mean of the two replicates",0.7105
same,Replicate_1,"sheet LOPAC_screen_w_protease, LOPAC1280 primary screen at 5 µM, with protease, replicate 1",1.221
same,Replicate_2,"sheet LOPAC_screen_w_protease, LOPAC1280 primary screen at 5 µM, with protease, replicate 2",0.1995
"OC[C@H]1NC[C@@H](O)[C@@H]1O [1,4-Dideoxy-1,4-imino-D-arabinitol]",mean (LOPAC_screen_w_protease),[3],1.627
same,Replicate_1 (LOPAC_screen_w_protease),"LOPAC1280 primary screen with protease, 5 µM compound, replicate 1",1.388
same,Replicate_2 (LOPAC_screen_w_protease),"LOPAC1280 primary screen with protease, 5 µM compound, replicate 2",1.866
NCCCCN=C(N)N [Agmatine sulfate],inhibition at 5 µM,"sheet LOPAC_screen_w_protease, LOPAC1280 at 5 µM, mean of two replicates, read-out: mean",1.26%
same,inhibition at 5 µM,"sheet LOPAC_screen_w_protease, LOPAC1280 at 5 µM, replicate 1, read-out: Replicate_1",0.743%
same,inhibition at 5 µM,"sheet LOPAC_screen_w_protease, LOPAC1280 at 5 µM, replicate 2, read-out: Replicate_2",1.77%
O=C(CCCN1CCC(O)(c2cccc(C(F)(F)F)c2)CC1)c1ccc(F)cc1 [Trifluperidol hydrochloride],inhibition at 5 µM,[1],-0.00744%
same,inhibition at 5 µM,[2],3.06%
same,mean (LOPAC_screen_w_protease),[3],1.525
CCOC(=O)C1=C(C)NC(C)=C(C(=O)OC)C1c1cccc([N+](=O)[O-])c1 (stereo not drawn) [Nitrendipine],inhibition at 5 µM,[4],4.54%
same,inhibition at 5 µM,[5],3.89%
same,inhibition at 5 µM,[6],5.19%
Cl.Cl.Fc1ccc(C(OCCN2CCN(CCCc3ccccc3)CC2)c2ccc(F)cc2)cc1 [GBR-12909 dihydrochloride],mean,"sheet LOPAC_screen_w_protease, LOPAC1280 primary screen with protease, 5 µM compound, mean of the two replicates",4.322
same,Replicate_1,"sheet LOPAC_screen_w_protease, LOPAC1280 primary screen with protease, 5 µM compound, replicate 1",4.518
same,Replicate_2,"sheet LOPAC_screen_w_protease, LOPAC1280 primary screen with protease, 5 µM compound, replicate 2",4.126
CCCn1c(=O)[nH]c(=O)c2nc[nH]c21 [3-n-Propylxanthine],mean,"sheet LOPAC_screen_w_protease, primary screen with protease, mean of two replicates",2.529
same,Replicate_1,"sheet LOPAC_screen_w_protease, primary screen with protease, replicate 1",1.492
same,Replicate_2,"sheet LOPAC_screen_w_protease, primary screen with protease, replicate 2",3.5659
CCOC(=O)c1cnc2c(cnn2CC)c1NN=C(C)C [Etazolate hydrochloride],inhibition at 5 µM,"sheet LOPAC_screen_w_protease, primary screen at 5 µM, mean of two replicates, read-out: mean (LOPAC screen with protease)",6.78%
same,inhibition at 5 µM,"sheet LOPAC_screen_w_protease, primary screen at 5 µM, replicate 1, read-out: Replicate_1 (LOPAC screen with protease)",5.91%
same,inhibition at 5 µM,"sheet LOPAC_screen_w_protease, primary screen at 5 µM, replicate 2, read-out: Replicate_2 (LOPAC screen with protease)",7.65%
Nc1nnc(-c2cccc(Cl)c2Cl)c(N)n1 [Lamotrigine],inhibition at 5 µM,[1],1.42%
same,inhibition at 5 µM,[2],1.78%
same,mean (LOPAC_screen_w_protease),[3],1.603
C=C(C)[C@H]1Cc2c(ccc3c2O[C@@H]2COc4cc(OC)c(OC)cc4[C@@H]2C3=O)O1 [Rotenone],inhibition at 5 µM,"sheet LOPAC_screen_w_protease, LOPAC1280 primary screen at 5 µM, with protease, mean of the two replicates, read-out: mean",0.71%
same,inhibition at 5 µM,"sheet LOPAC_screen_w_protease, LOPAC1280 primary screen at 5 µM, with protease, replicate 1, read-out: Replicate_1",2.43%
same,inhibition at 5 µM,"sheet LOPAC_screen_w_protease, LOPAC1280 primary screen at 5 µM, with protease, replicate 2, read-out: Replicate_2",-1.01%
CC(C)[N+]1(C)[C@@H]2CC[C@H]1C[C@@H](OC(=O)C(CO)c1ccccc1)C2 (stereo partly drawn) [Ipratropium bromide],inhibition at 5 µM,[1],1.02%
same,inhibition at 5 µM,[2],1.99%
same,mean (LOPAC_screen_w_protease),[3],1.504
COc1ccc(/C=C/C(=O)Nc2ccccc2C(=O)O)cc1OC [Tranilast],inhibition at 5 µM,read-out: Replicate_1,0.566%
same,inhibition at 5 µM,read-out: Replicate_2,-2.13%
same,inhibition at 5 µM,read-out: mean,-0.784%
